Test results: patent publication EP4635500A1, “THERAPEUTIC AGENT FOR BACTERIAL INFECTION” (Sumitomo Pharma Co., Ltd., priority 2022, dated 2024)
Converted amounts (≈) assume the structure as drawn. Where two headings read alike, the source gives them in different places.

System: Enterobacterales
Assay: MIC, broth microdilution, CDC/FDA Antibiotic Resistance Isolate Bank (Example 7, Tables 8, 11, 12)
Format: cell-based
Conditions: for MIC: read-out: MIC; for MIC90: read-out: MIC90

CO/N=C(\C(=O)N[C@@H]1C(=O)N2C(C(=O)[O-])=C(C[n+]3ccn4ncccc43)CS[C@H]12)c1nsc(N)n1 [Cefozopran, cefozopran]
MIC (Escherichia coli, KUB No. 5767, AR Bank # 371): 32 µg/mL (≈ 62.1 µM) | MIC (Escherichia coli, KUB No. 5768, AR Bank # 372): > 64 µg/mL | MIC (Escherichia coli, KUB No. 5769, AR Bank # 373): 0.5 µg/mL (≈ 0.97 µM) | MIC (Escherichia coli, KUB No. 5770, AR Bank # 374): 1 µg/mL (≈ 1.94 µM) | MIC (Escherichia coli, KUB No. 5774, AR Bank # 378): ≤ 0.03 µg/mL | MIC (Escherichia coli, KUB No. 5779, AR Bank # 433): 16 µg/mL (≈ 31 µM) | MIC (Escherichia coli, KUB No. 5780, AR Bank # 434): 64 µg/mL (≈ 124 µM) | MIC (Escherichia coli, KUB No. 5781, AR Bank # 435): > 64 µg/mL | MIC (Escherichia, KUB No. 57, AR Bank # 436 (row cut off)): 1 µg/mL (≈ 1.94 µM) | MIC (Klebsiella aerogenes, Enterobacter aerogenes, KUB No. 5559, AR Bank # 62): 0.5 µg/mL (≈ 0.97 µM) | MIC (Klebsiella aerogenes, Enterobacter aerogenes, KUB No. 5571, AR Bank # 74): 0.5 µg/mL (≈ 0.97 µM) | MIC (Klebsiella aerogenes, Enterobacter aerogenes, KUB No. 5658, AR Bank # 161): 32 µg/mL (≈ 62.1 µM) | MIC (Klebsiella aerogenes, Enterobacter aerogenes, KUB No. 5777, AR Bank # 431): 4 µg/mL (≈ 7.76 µM) | MIC (Klebsiella oxytoca, KUB No. 5568, AR Bank # 71): > 64 µg/mL | MIC (Klebsiella oxytoca, KUB No. 5644, AR Bank # 147): 1 µg/mL (≈ 1.94 µM) | MIC (Klebsiella oxytoca, KUB No. 5771, AR Bank # 375): 0.5 µg/mL (≈ 0.97 µM) | MIC (Klebsiella oxytoca, KUB No. 5776, AR Bank # 380): 32 µg/mL (≈ 62.1 µM) | MIC (Klebsiella ozaenae, KUB No. 5548, AR Bank# 51): > 64 µg/mL | MIC (Klebsiella ozaenae, KUB No. 5593, AR Bank # 96): > 64 µg/mL | MIC (Klebsiella pnemnonine, KUB No. 5758, AR Bank # 362): 32 µg/mL (≈ 62.1 µM) | MIC (Klebsiella pneumoniae, KUB No. 55, AR Bank# 47): > 64 µg/mL | MIC (Klebsiella pneumoniae, KUB No. 5531, AR Bank# 34): 4 µg/mL (≈ 7.76 µM) | MIC (Klebsiella pneumoniae, KUB No. 5536, AR Bank# 39): > 64 µg/mL | MIC (Klebsiella pneumoniae, KUB No. 5537, AR Bank# 40): > 64 µg/mL | MIC (Klebsiella pneumoniae, KUB No. 5538, AR Bank# 41): > 64 µg/mL | MIC (Klebsiella pneumoniae, KUB No. 5540, AR Bank# 43): > 64 µg/mL | MIC (Klebsiella pneumoniae, KUB No. 5541, AR Bank# 44): > 64 µg/mL | MIC (Klebsiella pneumoniae, KUB No. 5543, AR Bank# 46): > 64 µg/mL | MIC (Klebsiella pneumoniae, KUB No. 5546, AR Bank# 49): > 64 µg/mL | MIC (Klebsiella pneumoniae, KUB No. 5563, AR Bank # 66): > 64 µg/mL | MIC (Klebsiella pneumoniae, KUB No. 5565, AR Bank # 68): > 64 µg/mL | MIC (Klebsiella pneumoniae, KUB No. 5572, AR Bank # 75): > 64 µg/mL | MIC (Klebsiella pneumoniae, KUB No. 5573, AR Bank # 76): 64 µg/mL (≈ 124 µM) | MIC (Klebsiella pneumoniae, KUB No. 5576, AR Bank # 79): > 64 µg/mL | MIC (Klebsiella pneumoniae, KUB No. 5577, AR Bank # 80): > 64 µg/mL | MIC (Klebsiella pneumoniae, KUB No. 5584, AR Bank # 87): 32 µg/mL (≈ 62.1 µM) | MIC (Klebsiella pneumoniae, KUB No. 5594, AR Bank # 97): > 64 µg/mL | MIC (Klebsiella pneumoniae, KUB No. 5595, AR Bank # 98): 16 µg/mL (≈ 31 µM) | MIC (Klebsiella pneumoniae, KUB No. 5603, AR Bank # 106): > 64 µg/mL | MIC (Klebsiella pneumoniae, KUB No. 5604, AR Bank # 107): > 64 µg/mL | MIC (Klebsiella pneumoniae, KUB No. 5606, AR Bank # 109): > 64 µg/mL | MIC (Klebsiella pneumoniae, KUB No. 5609, AR Bank # 112): 32 µg/mL (≈ 62.1 µM) | MIC (Klebsiella pneumoniae, KUB No. 5610, AR Bank # 113): > 64 µg/mL | MIC (Klebsiella pneumoniae, KUB No. 5612, AR Bank # 115): 32 µg/mL (≈ 62.1 µM) | MIC (Klebsiella pneumoniae, KUB No. 5614, AR Bank # 117): > 64 µg/mL | MIC (Klebsiella pneumoniae, KUB No. 5617, AR Bank # 120): 32 µg/mL (≈ 62.1 µM) | MIC (Klebsiella pneumoniae, KUB No. 5622, AR Bank # 125): 32 µg/mL (≈ 62.1 µM) | MIC (Klebsiella pneumoniae, KUB No. 5623, AR Bank # 126): 64 µg/mL (≈ 124 µM) | MIC (Klebsiella pneumoniae, KUB No. 5626, AR Bank # 129): 32 µg/mL (≈ 62.1 µM) | MIC (Klebsiella pneumoniae, KUB No. 5632, AR Bank # 135): > 64 µg/mL | MIC (Klebsiella pneumoniae, KUB No. 5635, AR Bank # 138): > 64 µg/mL | MIC (Klebsiella pneumoniae, KUB No. 5636, AR Bank # 139): 64 µg/mL (≈ 124 µM) | MIC (Klebsiella pneumoniae, KUB No. 5637, AR Bank # 140): > 64 µg/mL | MIC (Klebsiella pneumoniae, KUB No. 5638, AR Bank # 141): > 64 µg/mL | MIC (Klebsiella pneumoniae, KUB No. 5639, AR Bank # 142): > 64 µg/mL | MIC (Klebsiella pneumoniae, KUB No. 5640, AR Bank # 143): > 64 µg/mL | MIC (Klebsiella pneumoniae, KUB No. 5642, AR Bank # 145): 64 µg/mL (≈ 124 µM) | MIC (Klebsiella pneumoniae, KUB No. 5643, AR Bank # 146): > 64 µg/mL | MIC (Klebsiella pneumoniae, KUB No. 5645, AR Bank # 148): 64 µg/mL (≈ 124 µM) | MIC (Klebsiella pneumoniae, KUB No. 5649, AR Bank # 152): > 64 µg/mL | MIC (Klebsiella pneumoniae, KUB No. 5650, AR Bank # 153): > 64 µg/mL | MIC (Klebsiella pneumoniae, KUB No. 5655, AR Bank # 158): > 64 µg/mL | MIC (Klebsiella pneumoniae, KUB No. 5657, AR Bank # 160): 2 µg/mL (≈ 3.88 µM) | MIC (Klebsiella pneumoniae, KUB No. 5757, AR Bank # 361): 16 µg/mL (≈ 31 µM) | MIC (Klebsiella pneumoniae, KUB No. 5759, AR Bank # 363): 16 µg/mL (≈ 31 µM) | MIC (Klebsiella pneumoniae, KUB No. 5760, AR Bank # 364): 4 µg/mL (≈ 7.76 µM) | MIC (Klebsiella pneumoniae, KUB No. 5772, AR Bank # 376): > 64 µg/mL | MIC (Klebsiella pneumoniae, Klebsiella pneumoniae KUB No. 5784, AR Bank #438): > 64 µg/mL | MIC (Klebsiella pneumoniae, Klebsiella pneumoniae KUB No. 5797, AR Bank #453): > 64 µg/mL | MIC (Klebsiella pneumoniae, Klebsiella pneumoniae KUB No. 5809, AR Bank #504): > 64 µg/mL | MIC (Klebsiella pneumoniae, Klebsiella pneumoniae KUB No. 5810, AR Bank #505): > 64 µg/mL | MIC (Klebsiella pneumoniae, Klebsiella pneumoniae KUB No. 5811, AR Bank #506): > 64 µg/mL | MIC (Klebsiella pneumoniae, Klebsiella pneumoniae KUB No. 5812, AR Bank #507): > 64 µg/mL | MIC (Klebsiella pneumoniae, Klebsiella pneumoniae KUB No. 5827, AR Bank #522): > 64 µg/mL | MIC (Klebsiella pneumoniae, Klebsiella pneumoniae KUB No. 5828, AR Bank #523): 32 µg/mL (≈ 62.1 µM) | MIC (Klebsiella pneumoniae, Klebsiella pneumoniae KUB No. 5829, AR Bank #524): 32 µg/mL (≈ 62.1 µM) | MIC (Klebsiella pneumoniae, Klebsiella pneumoniae KUB No. 5830, AR Bank #525): 32 µg/mL (≈ 62.1 µM) | MIC (Kluyvera ascorbata, KUB No. 5641, AR Bank # 144): 16 µg/mL (≈ 31 µM) | MIC (Morganella morganii, KUB No. 5554, AR Bank# 57): > 64 µg/mL | MIC (Morganella morganii, KUB No. 5630, AR Bank # 133): 64 µg/mL (≈ 124 µM) | MIC (Proteus mirabilis, KUB No. 5556, AR Bank# 59): 2 µg/mL (≈ 3.88 µM) | MIC (Proteus mirabilis, KUB No. 5652, AR Bank # 155): 64 µg/mL (≈ 124 µM) | MIC (Proteus mirabilis, KUB No. 5653, AR Bank # 156): 0.5 µg/mL (≈ 0.97 µM) | MIC (Proteus mirabilis, KUB No. 5656, AR Bank # 159): > 64 µg/mL | MIC (Proteus mirabilis, KUB No. 5773, AR Bank # 377): 16 µg/mL (≈ 31 µM) | MIC (Proteus mirabilis, KUB No. 5775, AR Bank # 379): 4 µg/mL (≈ 7.76 µM) | MIC (Providencia rettgeri, KUB No. 5579, AR Bank # 82): 16 µg/mL (≈ 31 µM) | MIC (Raoultella ornithinolvtica, KUB No. 5631, AR Bank # 134): 8 µg/mL (≈ 15.5 µM) | MIC (Salmonella enterica, Salmonella Senftenberg, KUB No. 5624, AR Bank # 127): > 64 µg/mL | MIC (Serratia marcescens, KUB No. 5588, AR Bank # 91): 0.12 µg/mL (≈ 0.233 µM) | MIC (Serratia marcescens, KUB No. 5596, AR Bank # 99): 0.25 µg/mL (≈ 0.485 µM) | MIC (Serratia marcescens, KUB No. 5618, AR Bank # 121): 0.12 µg/mL (≈ 0.233 µM) | MIC (Serratia marcescens, KUB No. 5619, AR Bank # 122): 0.12 µg/mL (≈ 0.233 µM) | MIC (Serratia marcescens, KUB No. 5620, AR Bank # 123): 0.12 µg/mL (≈ 0.233 µM) | MIC (Serratia marcescens, KUB No. 5621, AR Bank # 124): 0.12 µg/mL (≈ 0.233 µM) | MIC (Serratia marcescens, KUB No. 5627, AR Bank # 130): 0.12 µg/mL (≈ 0.233 µM) | MIC (Serratia marcescens, KUB No. 5628, AR Bank # 131): 0.12 µg/mL (≈ 0.233 µM) | MIC (Serratia marcescens, Serratia marcescens KUB No. 5822, AR Bank #517): > 64 µg/mL | MIC (Serratia marcescens, Serratia marcescens KUB No. 5825, AR Bank #520): 0.25 µg/mL (≈ 0.485 µM) | MIC (Serratia marcescens, Serratia marcescens KUB No. 5826, AR Bank #521): 8 µg/mL (≈ 15.5 µM) | MIC50 (carbapenemase-producing Enterobacterales, Metallo-β-lactamase (N = 47), read-out: MIC50): > 64 µg/mL | MIC90 (carbapenemase-producing Enterobacterales, Metallo-β-lactamase (N = 47)): > 64 µg/mL | MIC90 (carbapenemase-producing Enterobacterales, Serine carbapenemase (N=61)): > 64 µg/mL
